In data set [1] the test system is NR2F1-regulated genes SOX9, RARβ, and p27. Further details: method as in PMID 34812843. To be noted: chicken embryo chorioallantoic membrane tumors; cited from earlier work.
Data set [2] relates to NR2F1. The arrangement: method as in PMID 34812843. Conditions: cited from earlier work.
For data set [3], the system named is head and neck squamous-cell carcinoma (HNSCC). The arrangement: method as in PMID 34812843. To be noted: mice; cited from earlier work.
The target in data set [4] is T1, PNR (NR2E3) (Homo sapiens, UniProt Q9Y5X4).
T1 construct: encoding the hinge region and the LBD of the canonical isoform of the respective human nuclear receptors; expressed in transfected cells; host or cells: HEK293T
T1 sequence (Q9Y5X4 169-410 limits assumed): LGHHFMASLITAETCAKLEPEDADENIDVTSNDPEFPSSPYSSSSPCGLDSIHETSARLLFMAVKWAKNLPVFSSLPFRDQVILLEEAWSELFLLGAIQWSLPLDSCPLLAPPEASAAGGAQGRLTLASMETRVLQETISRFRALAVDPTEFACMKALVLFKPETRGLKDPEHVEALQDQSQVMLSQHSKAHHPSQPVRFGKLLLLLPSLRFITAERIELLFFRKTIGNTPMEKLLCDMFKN
As to the kind of experiment: Gal4-hybrid reporter gene assay PNR. The data set is classed as cell-based. To be noted: selected test concentration (Figure 3). On the procedure: Gal4-hybrid reporter gene assays were performed as described previously using the plasmids pFA-CMV-hTHRα-LBD,[170] pFA-CMV-hRARα-LBD,[171] pFA-CMV-hPPARα-LBD,[172] pFA-CMV-hPPARγ-LBD,[172] pFA-CMV-hPPARδ-LBD,[172] pFA-CMV-revERBα-LBD,[158] pFA-CMV-hRORα-LBD,[173] pFA-CMV-hLXRα-LBD,[118] pFA-CMV-hFXR-LBD,[174] pFA-CMV-hVDR-LBD,[171] pFA-CMV-hCAR-LBD,[171] pFA-CMV-hHNF4α-LBD,[110] pFA-CMV-hRXRα-LBD,[175] pFA-CMV-hTR2-LBD,[102] pFA-CMV-hTR4-LBD,[102] pFA-CMV-hTLX-LBD,[102] pFA-CMV-hNR2E3-LBD,[102] pFA-CMV-hNur77-LBD,[176] pFA-CMV-hSF1-LBD[158] encoding the hinge region and the LBD of the canonical isoform of the respective human nuclear receptors. pFR-Luc (Stratagene, La Jolla, CA, USA) was used as a reporter plasmid, and pRL-SV40 (Promega, Madison, WI, USA) was used for normalization of transfection efficiency and cell growth. HEK293T cells (German Collection of Microorganisms and Cell Culture GmbH, DSMZ) were cultured in Dulbecco’s modified Eagle’s medium (DMEM), high glucose supplemented with 10% fetal calf serum (FCS), sodium pyruvate (1 mM), penicillin (100 U/mL), and streptomycin (100 μg/mL) at 37 °C and 5% CO2 and seeded in 96-well plates (3 × 10^4 cells/well). The medium was changed to Opti-MEM without supplements, and the cells were transiently transfected with one pFA-CMV-hNR-LBD clone, pFR-Luc, and pRL-SV40 using Lipofectamine LTX reagent (Invitrogen, Thermo Fisher Scientific) according to the manufacturer’s instructions. Five hours after transfection, cells were incubated with the test compounds in Opti-MEM supplemented with penicillin (100 U/mL), streptomycin (100 μg/mL), and 0.1% DMSO. Each sample was set up in duplicates and tested in at least three independent experiments. After 16 h incubation, luciferase activity was measured using the Dual-Glo Luciferase Assay System (Promega) according to the manufacturer’s protocol on a Tecan Spark luminometer (Tecan Deutschland GmbH, Crailsheim, Germany). Firefly luminescence was divided by Renilla luminescence and multiplied by 1000 resulting in relative light units (RLUs) to normalize for transfection efficiency and cell growth. Fold activation was obtained by dividing the mean RLU of the test compound by the mean^a RLU of the untreated control, and relative activation was calculated by dividing the fold activation of a test sample by the fold activation of the respective reference agonist. Antagonistic effects were evaluated by coincubation of the test compound with the respective reference ligand.
Background: Reporter assays use an easily measured gene product as a stand-in for the process of interest.

In data set [5] the test system is NR2F1. Further details: method as in PMID 34812843. To be noted: T-Hep3 cells on chicken embryo chorioallantoic membrane; cited from earlier work.
Data set [6] deals with COUP-TF2. Further details: method as in PMID 32494682. Conditions: reporter gene assay; cited from earlier work.
The subject of data set [7] is HNF4α, RXRα, PPARα, LXRα, GR, PR, ER, RAR, RORγ, AR, and COUP-TF1. Further details: method as in PMID 32494682. Conditions: cited from earlier work.
Data set [8] concerns COUP-TF2 target genes FOXM1 and CDK1. Further details: method as in PMID 32494682. Conditions: prostate cancer cells; cited from earlier work.
In data set [9] the test system is prostate cancer tumor. Further details: method as in PMID 32494682. To be noted: xenograft mouse model, 2.6 mg/kg; cited from earlier work.
For data set [10], the target named is RARα (Homo sapiens, UniProt P10276). Conditions: selected test concentration (Figure 3).
RARα, sequence (P10276 183-417 limits assumed): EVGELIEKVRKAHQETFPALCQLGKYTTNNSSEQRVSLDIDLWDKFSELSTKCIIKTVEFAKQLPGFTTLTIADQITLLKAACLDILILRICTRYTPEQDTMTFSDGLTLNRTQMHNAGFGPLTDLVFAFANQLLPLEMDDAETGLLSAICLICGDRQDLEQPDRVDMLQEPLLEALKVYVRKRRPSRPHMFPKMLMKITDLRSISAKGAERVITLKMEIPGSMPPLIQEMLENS
Method: HEK293T cells (German Collection of Microorganisms and Cell Culture GmbH, DSMZ) were cultured in Dulbecco’s modified Eagle’s medium (DMEM), high glucose supplemented with 10% fetal calf serum (FCS), sodium pyruvate (1 mM), penicillin (100 U/mL), and streptomycin (100 μg/mL) at 37 °C and 5% CO2 and seeded in 96-well plates (3 × 10^4 cells/well). The medium was changed to Opti-MEM without supplements, and the cells were transiently transfected with one pFA-CMV-hNR-LBD clone, pFR-Luc, and pRL-SV40 using Lipofectamine LTX reagent (Invitrogen, Thermo Fisher Scientific) according to the manufacturer’s instructions. […] After 16 h incubation, luciferase activity was measured using the Dual-Glo Luciferase Assay System (Promega) according to the manufacturer’s protocol on a Tecan Spark luminometer (Tecan Deutschland GmbH, Crailsheim, Germany). Firefly luminescence was divided by Renilla luminescence and multiplied by 1000 resulting in relative light units (RLUs) to normalize for transfection efficiency and cell growth. Fold activation was obtained by dividing the mean RLU of the test compound by the mean^a RLU of the untreated control, and relative activation was calculated by dividing the fold activation of a test sample by the fold activation of the respective reference agonist. Antagonistic effects were evaluated by coincubation of the test compound with the respective reference ligand.
The test system of data set [11] is full-length TLX. To be noted: reporter gene assay; read-out: IC50 (second value of cell; full-length TLX); cited from earlier work.
Data set [12] relates to RARs and RXRs. The arrangement: method as in PMID 32763139. To be noted: cited from earlier work.
Data set [13] concerns HEK293T cells. Conditions: cited from earlier work.
The test system of data set [14] is TLX. To be noted: reporter gene assay; read-out: IC50 (first value of cell; TLX/Gal4); cited from earlier work.
The subject of data set [15] is TLX LBD. To be noted: FP assay, cited from earlier work.
For data set [16], the target named is T2, TLX (Homo sapiens, UniProt Q9Y466).
T2 construct: encoding the hinge region and the LBD of the canonical isoform of the respective human nuclear receptors; expressed in transfected cells; host or cells: HEK293T
T2 sequence (Q9Y466 155-383 limits assumed): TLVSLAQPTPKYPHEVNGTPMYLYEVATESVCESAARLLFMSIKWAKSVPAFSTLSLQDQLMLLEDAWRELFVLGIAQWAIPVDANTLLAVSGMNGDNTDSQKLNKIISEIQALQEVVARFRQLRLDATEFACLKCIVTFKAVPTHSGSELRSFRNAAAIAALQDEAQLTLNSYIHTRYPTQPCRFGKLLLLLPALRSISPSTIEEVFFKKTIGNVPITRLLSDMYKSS
Briefly: Gal4-hybrid reporter gene assay TLX. The data set is classed as cell-based. To be noted: selected test concentration (Figure 3).

Data set [17] relates to RXRβ. To be noted: reporter gene assay; read-out: RXRβ cellular activity/potency; cited from earlier work.
Data set [18] deals with RXRγ. To be noted: reporter gene assay; read-out: RXRγ cellular activity/potency; cited from earlier work.
The target in data set [19] is T3, TR4 (Homo sapiens, UniProt P49116).
T3 construct: encoding the hinge region and the LBD of the canonical isoform of the respective human nuclear receptors; expressed in transfected cells; host or cells: HEK293T
T3 sequence (P49116 341-583 limits assumed): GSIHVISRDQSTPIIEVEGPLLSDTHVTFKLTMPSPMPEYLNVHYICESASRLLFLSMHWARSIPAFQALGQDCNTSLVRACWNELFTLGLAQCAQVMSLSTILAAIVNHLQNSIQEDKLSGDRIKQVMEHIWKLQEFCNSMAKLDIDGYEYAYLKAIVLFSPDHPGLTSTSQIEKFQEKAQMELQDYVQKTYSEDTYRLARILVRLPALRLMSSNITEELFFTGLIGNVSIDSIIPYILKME
As to the kind of experiment: Gal4-hybrid reporter gene assay TR4. Format: cell-based. To be noted: 1 µM. On the procedure: (§1) Gal4-hybrid reporter gene assays were performed as described previously using the plasmids pFA-CMV-hTHRα-LBD,[170] pFA-CMV-hRARα-LBD,[171] pFA-CMV-hPPARα-LBD,[172] pFA-CMV-hPPARγ-LBD,[172] pFA-CMV-hPPARδ-LBD,[172] pFA-CMV-revERBα-LBD,[158] pFA-CMV-hRORα-LBD,[173] pFA-CMV-hLXRα-LBD,[118] pFA-CMV-hFXR-LBD,[174] pFA-CMV-hVDR-LBD,[171] pFA-CMV-hCAR-LBD,[171] pFA-CMV-hHNF4α-LBD,[110] pFA-CMV-hRXRα-LBD,[175] pFA-CMV-hTR2-LBD,[102] pFA-CMV-hTR4-LBD,[102] pFA-CMV-hTLX-LBD,[102] pFA-CMV-hNR2E3-LBD,[102] pFA-CMV-hNur77-LBD,[176] pFA-CMV-hSF1-LBD[158] encoding the hinge region and the LBD of the canonical isoform of the respective human nuclear receptors. pFR-Luc (Stratagene, La Jolla, CA, USA) was used as a reporter plasmid, and pRL-SV40 (Promega, Madison, WI, USA) was used for normalization of transfection efficiency and cell growth. […] After 16 h incubation, luciferase activity was measured using the Dual-Glo Luciferase Assay System (Promega) according to the manufacturer’s protocol on a Tecan Spark luminometer (Tecan Deutschland GmbH, Crailsheim, Germany). Firefly luminescence was divided by Renilla luminescence and multiplied by 1000 resulting in relative light units (RLUs) to normalize for transfection efficiency and cell growth. […] Antagonistic effects were evaluated by coincubation of the test compound with the respective reference ligand.

Data set [20] addresses T4, RXRα (Homo sapiens, UniProt P19793).
T4 sequence (P19793 227-458 limits assumed): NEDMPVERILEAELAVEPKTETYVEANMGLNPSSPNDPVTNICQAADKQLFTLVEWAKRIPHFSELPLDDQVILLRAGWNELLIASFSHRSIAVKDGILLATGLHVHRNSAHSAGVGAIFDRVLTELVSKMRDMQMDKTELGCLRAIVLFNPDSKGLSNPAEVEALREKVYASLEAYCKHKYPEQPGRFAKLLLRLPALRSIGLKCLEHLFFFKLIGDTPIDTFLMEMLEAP
As to the kind of experiment: Gal4-hybrid reporter gene assay RXRα. Conditions: 1 µM.

In data set [21] the target is T5, TR2 (Homo sapiens, UniProt P13056).
T5 construct: encoding the hinge region and the LBD of the canonical isoform of the respective human nuclear receptors; expressed in transfected cells; host or cells: HEK293T
T5 sequence (P13056 348-590 limits assumed): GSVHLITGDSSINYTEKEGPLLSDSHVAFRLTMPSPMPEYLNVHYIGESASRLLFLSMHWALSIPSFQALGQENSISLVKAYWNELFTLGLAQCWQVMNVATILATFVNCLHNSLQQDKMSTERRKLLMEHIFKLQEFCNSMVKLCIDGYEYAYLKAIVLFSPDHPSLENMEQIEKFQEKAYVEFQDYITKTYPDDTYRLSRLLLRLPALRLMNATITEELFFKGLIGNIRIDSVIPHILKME
As to the kind of experiment: Gal4-hybrid reporter gene assay TR2. The data set is classed as cell-based. To be noted: 1 µM. On the procedure:
as §1

Data set [22] deals with RXRα. Conditions: reporter gene assay; read-out: RXRα cellular activity/potency; cited from earlier work.

SMILES strings stand for the structures.

Consider `CCSc1nnc2n(CCc3ccccc3)c(=O)c3c(n12)-c1ccccc1CC31CCCCC1` [compound 26], for which, in data set [1], the “expression of NR2F1-regulated genes SOX9, RARβ, and p27” value is given as “induced expression”. In data set [2] (reporter gene assay, 0.1 μM), the “fold activation @ 0.1 μM” value was 2.4 f.A. The “fold activation @ 1 μM” value in data set [2] (reporter gene assay, 1 μM) is 1.9 f.A. For the same molecule, the EC50 in [2] (reporter gene assay, two cell lines) was 500 to 1000 nM. The “enhancement of reporter activity” value in data set [2] (two cell lines) is “approximately two-fold”. Moreover, in data set [3], the “tumor growth and metastasis of HNSCC” value was “inhibited tumor growth and metastasis”. For the same molecule, the PNR modulation result in data set [4] is “confirmed albeit with rather low efficacy”. Further, in data set [5], the “increase in NR2F1 mRNA” value is recorded as 2.3 fold and the “increase in NR2F1 protein levels” value was 10 fold.

As to `COc1ccc(CCNc2ncnc3sc(C)cc23)cc1OC` [compound 27], in data set [6], the IC50 is 3200 nM. For the same molecule, the “interaction with related NRs in pulldown assay” value in [7] was “no relevant interaction”. Besides, the “expression of COUP-TF2 target genes FOXM1 and CDK1” value in [8] is listed as “altered expression”. For the same molecule, in data set [9], the “prostate cancer tumor growth and angiogenesis” value was “inhibited prostate cancer tumor growth and angiogenesis”.

For `CC1(C)CC=C(c2ccccc2)c2cc(/C=C/c3ccc(C(=O)O)cc3)ccc21` [compound 17], the RAR activation entry in data set [10] was “activated RAR”. The figures for the concentration for half-maximal inhibition (IC50) in [11] and in [14] were 159 nM and 367 nM, respectively. Besides, in [12], the “activity on RARs and RXRs” value is “agonism on RARs and RXRs”. Further, in data set [13], the “toxicity in HEK293T cells used for the reporter gene assays” value was “pronounced toxicity”. Further, the “effect on atrophin binding to TLX LBD” value in data set [15] was “displacement of atrophin”. The dissociation constant (Kd) in data set [15] (no precise value reported) was around 1000 nM. Also, the TLX modulation result in data set [16] is listed as “not observed”.

In the case of `CC1(C)CCC(C)(C)c2cc(C3(c4ccc(C(=O)O)cc4)OCCO3)ccc21` [compound 11], the EC50 in data set [17] is 98 nM; in data set [18] it was 232 nM; in data set [22], 29 nM. Moreover, the TR4 off-target activity entry in data set [19] was “off-target activities”. For the same molecule, the RXR activation entry in data set [20] is “strong RXR activation”. Also, the TR2 off-target activity result in [21] is reported as “off-target activities”. Besides, the PNR modulation result in data set [4] was “off-target activities”.

For orientation: IC50 means the concentration at which inhibition is half-maximal. For orientation: Kd means the equilibrium constant for the complex coming apart.
